Activity calls are given as the source filed them. No cut-off for these calls is given here.
What was measured:
RAW264.7 [1] = experiment: Cytotoxicity against mouse RAW264.7 cells assessed as effect on cell viability at 2.5 to 20 uM measured after 24 hrs by CCK8 assay; format: toxicity, cell-based; conditions: raw264.7, 24 h, dose 2.5-20 µM
RAW264.7 [2] = experiment: Antiinflammatory activity against mouse RAW264.7 cells assessed as inhibition of LPS-induced TNF-alpha production pretreated for 2 hrs followed by LPS stimulation for 24 hrs by ELISA; format: functional, cell-based; conditions: dose 2.5-20 µM, time 26.0 hrs
RAW264.7 [3] = experiment: Antiinflammatory activity against mouse RAW264.7 cells assessed as inhibition of LPS-induced COX-2 protein expression at 2.5 to 5 uM pretreated for 1 hr followed by LPS stimulation for 25 mins by western blot analysis; format: functional, cell-based; conditions: dose 2.5-5 µM, time 85.0 min
RAW264.7 [4] = experiment: Antiinflammatory activity against mouse RAW264.7 cells assessed as inhibition of LPS-induced NO production pretreated for 2 hrs followed by LPS stimulation for 24 hrs by ELISA; format: functional, cell-based; conditions: dose 2.5-20 µM, time 26.0 hrs
RAW264.7 [5] = experiment: Inhibition of NF-kappaB signaling pathway in mouse RAW264.7 cells assessed as decrease in NF-kappaB p65 phosphorylation at Ser536 residue at 2.5 to 5 uM pretreated for 1 hr followed by LPS stimulation for 25 mins by western blot analysis; format: cell-based; conditions: dose 2.5-5 µM, time 85.0 min
RAW264.7 [6] = experiment: Inhibition of NF-kappaB signaling pathway in mouse RAW264.7 cells assessed as decrease in IkappaBalpha phosphorylation at Ser32 residue at 2.5 to 5 uM pretreated for 1 hr followed by LPS stimulation for 25 mins by western blot analysis; format: cell-based; conditions: dose 2.5-5 µM, time 85.0 min
RAW264.7 [7] = experiment: Antiinflammatory activity against mouse RAW264.7 cells assessed as inhibition of LPS-induced IL-6 production pretreated for 2 hrs followed by LPS stimulation for 24 hrs by ELISA; format: functional, cell-based; conditions: dose 2.5-20 µM, time 26.0 hrs
RAW264.7 [8] = experiment: Inhibition of MAPK signaling pathway in mouse RAW264.7 cells assessed as decrease in JNK phosphorylation at 2.5 to 5 uM pretreated for 1 hr followed by LPS stimulation for 25 mins by western blot analysis; format: cell-based; conditions: dose 2.5-5 µM, time 85.0 min
RAW264.7 [9] = experiment: Antiinflammatory activity against mouse RAW264.7 cells assessed as inhibition of LPS-induced PGE2 production pretreated for 2 hrs followed by LPS stimulation for 24 hrs by ELISA; format: functional, cell-based; conditions: dose 2.5-20 µM, time 26.0 hrs
RAW264.7 [10] = experiment: Inhibition of MAPK signaling pathway in mouse RAW264.7 cells assessed as decrease in ERK1/2 phosphorylation at 2.5 to 5 uM pretreated for 1 hr followed by LPS stimulation for 25 mins by western blot analysis; format: cell-based; conditions: dose 2.5-5 µM, time 85.0 min
RAW264.7 [11] = experiment: Inhibition of MAPK signaling pathway in mouse RAW264.7 cells assessed as decrease in p38 phosphorylation at 2.5 to 5 uM pretreated for 1 hr followed by LPS stimulation for 25 mins by western blot analysis; format: cell-based; conditions: dose 2.5-5 µM, time 85.0 min

## CC1=CCC[C@H]2[C@](C)(CC3=CC(=O)C=C(NCCO)C3=O)[C@@H](C)CC[C@]12C
RAW264.7 [1]
  Activity: Non-toxic

## CC1=CCC[C@H]2[C@](C)(CC3=CC(=O)C(NCCO)=CC3=O)[C@@H](C)CC[C@]12C
RAW264.7 [1]
  Activity: Non-toxic

## CC1=CCC[C@H]2[C@](C)(Cc3cc4c(cc3O)[n+](CCS(=O)(=O)[O-])c3n4CCC3)[C@@H](C)CC[C@]12C
RAW264.7 [1]
  Activity: Non-toxic

## CC1=CCC[C@H]2[C@](C)(CC3=CC(=O)C=C(N(C)CCO)C3=O)[C@@H](C)CC[C@]12C
RAW264.7 [1]
  Activity: Non-toxic

## C[C@H]1CC[C@@]2(C)[C@@H](CC[C@@H](O)[C@@]2(C)O)[C@]1(C)Cc1cc(O)cc2nc3n(c12)CCC3
RAW264.7 [1]
  Activity: Non-toxic

## CC(=O)c1cc(O)cc(C[C@]2(C)[C@@H](C)CC[C@]3(C)C(C)=CCC[C@@H]23)c1O
RAW264.7 [1]
  Activity: Non-toxic

## C=C1CCC[C@H]2[C@](C)(Cc3cc(O)cc(C(C)=O)c3O)[C@@H](C)CC[C@]12C
RAW264.7 [2]
  Activity: Dose-dependent-effect
RAW264.7 [3]
  Activity: Active
RAW264.7 [4]
  Activity: Dose-dependent-effect
RAW264.7 [1]
  Activity: Non-toxic
RAW264.7 [5]
  inhibition: Active
RAW264.7 [6]
  inhibition: Active
RAW264.7 [7]
  Activity: Dose-dependent-effect
RAW264.7 [8]
  inhibition: Active
RAW264.7 [9]
  Activity: Dose-dependent-effect
RAW264.7 [10]
  inhibition: Active
RAW264.7 [11]
  inhibition: Active

From ChEMBL document CHEMBL6182875, “Cinerols L-R, Anti-inflammatory Meroterpenoids from the Marine Sponge Dysidea cinerea” (J Nat Prod, 2025)
